The record followed here is ChEMBL document CHEMBL3751783, “Straightforward and effective synthesis of γ-aminobutyric acid transporter subtype 2-selective acyl-substituted azaspiro[4.5]decanes” (Bioorg Med Chem Lett, 2016).

The structures appear in SMILES notation. Where only a bound is given, the exact number is not on record here.

Type in all cases: cell-based
For one test, the target named is T1, GABA transporter 2 (Mus musculus, UniProt P31651).
T1 sequence (P31651 whole entry): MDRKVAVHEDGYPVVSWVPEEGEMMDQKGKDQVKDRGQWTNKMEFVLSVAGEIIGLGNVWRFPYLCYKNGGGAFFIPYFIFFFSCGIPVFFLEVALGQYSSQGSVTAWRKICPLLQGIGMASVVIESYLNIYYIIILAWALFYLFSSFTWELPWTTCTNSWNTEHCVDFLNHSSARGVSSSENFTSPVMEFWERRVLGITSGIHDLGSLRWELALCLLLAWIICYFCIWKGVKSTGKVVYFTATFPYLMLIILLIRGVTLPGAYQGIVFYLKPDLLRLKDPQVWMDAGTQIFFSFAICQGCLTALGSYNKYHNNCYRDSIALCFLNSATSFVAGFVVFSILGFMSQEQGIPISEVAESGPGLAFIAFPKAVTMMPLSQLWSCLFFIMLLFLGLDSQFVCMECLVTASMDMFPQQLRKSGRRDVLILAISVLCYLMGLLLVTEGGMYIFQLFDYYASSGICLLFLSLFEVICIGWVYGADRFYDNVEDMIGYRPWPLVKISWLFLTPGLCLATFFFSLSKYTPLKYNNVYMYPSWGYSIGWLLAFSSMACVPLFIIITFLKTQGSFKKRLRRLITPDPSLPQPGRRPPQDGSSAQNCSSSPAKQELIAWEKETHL
The experiment in a line: Inhibition of mouse BGT1 mediated [3]GABA uptake expressed in HEK293 cells after 3 mins by scintillation counting.

The next test addresses T2, GABA transporter 3 (Mus musculus, UniProt P31649).
T2 sequence (P31649 whole entry): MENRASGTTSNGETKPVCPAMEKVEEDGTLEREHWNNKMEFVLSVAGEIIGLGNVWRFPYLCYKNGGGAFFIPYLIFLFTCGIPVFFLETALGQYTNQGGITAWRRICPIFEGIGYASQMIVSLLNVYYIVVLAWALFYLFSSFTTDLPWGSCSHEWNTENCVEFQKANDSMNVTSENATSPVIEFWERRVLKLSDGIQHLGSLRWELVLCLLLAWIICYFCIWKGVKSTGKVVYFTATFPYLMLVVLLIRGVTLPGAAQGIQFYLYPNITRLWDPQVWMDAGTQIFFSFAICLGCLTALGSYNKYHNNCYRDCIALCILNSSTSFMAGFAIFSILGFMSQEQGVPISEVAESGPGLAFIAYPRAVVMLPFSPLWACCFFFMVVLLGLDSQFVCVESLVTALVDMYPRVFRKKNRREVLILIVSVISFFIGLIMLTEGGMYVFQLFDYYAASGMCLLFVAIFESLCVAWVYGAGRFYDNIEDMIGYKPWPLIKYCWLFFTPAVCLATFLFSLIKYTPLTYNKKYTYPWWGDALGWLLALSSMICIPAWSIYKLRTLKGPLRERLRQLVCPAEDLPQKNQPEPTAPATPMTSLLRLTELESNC
The experiment in a line: Inhibition of mouse GAT2 mediated [3]GABA uptake expressed in HEK293 cells after 3 mins by scintillation counting.

Test [1] addresses Sodium- and chloride-dependent GABA transporter 1 (Mus musculus, UniProt P31648). The experiment in a line: Inhibition of mouse GAT1 mediated [3]GABA uptake expressed in HEK293 cells after 3 mins by scintillation counting.

In the case of `O=C1CCC2(CCCCC2=O)N1` (stereo not given), the IC50 (against GABA transporter 2; at GABA transporter 3; in test [1]) was over 1000 µM each time.

For `O=C(CCN1CCOCC1)N1CCCC12CCCCC2`, the half-maximal inhibitory concentration (IC50) (against GABA transporter 2; at GABA transporter 3; in test [1]) was over 5000 µM in each case.

As for `O=C1C=CC2(CCCC23OCCO3)N1C(=O)CCN1CCNCC1` (stereo not given), the IC50 (at GABA transporter 2; on GABA transporter 3; in test [1]) was over 1000 µM throughout.

`O=C(CCl)N1C(=O)CCC12CCCCC2`: the IC50 (against GABA transporter 2; against GABA transporter 3; in test [1]) was over 1000 µM each time.

Regarding `O=C(CCN1CCCC1)N1C(=O)CCC12CCCCC2`, the IC50 (at GABA transporter 2; on GABA transporter 3; in test [1]) was over 1000 µM throughout.

For the compound `C=CC(=O)N1C(=O)CCC12CCCCC2`, the IC50 on GABA transporter 2 was 103 µM; against GABA transporter 3, over 1000 µM; in test [1], 371 µM.

Regarding `O=C(O)C1=CCCNC1` [GUVACINE], the IC50 is over 1000 µM against GABA transporter 2, 72.4 µM at GABA transporter 3 and 20.9 µM in test [1].

As to `CCOC(=O)C1CCCN(CCC(=O)N2C(=O)C=CC23CCCC32OCCO2)C1` (stereo not given), the IC50 (against GABA transporter 2; against GABA transporter 3; in test [1]) was over 1000 µM in each case.

Regarding `O=C(CBr)N1C(=O)CCC12CCCCC2=O` (stereo not given), the IC50 (on GABA transporter 2; on GABA transporter 3; in test [1]) was over 1000 µM each time.

In the case of `O=C1C=CC2(CCCC23OCCO3)N1C(=O)CCN1CCOCC1` (stereo not given), the IC50 (at GABA transporter 2; against GABA transporter 3; in test [1]) was over 1000 µM throughout.

For the compound `O=C(CI)N1C(=O)CCC12CCCCC2`, the IC50 (at GABA transporter 2; against GABA transporter 3; in test [1]) was over 1000 µM each time.

For the compound `C=CCN1C(=O)CCC12CCCC21OCCO1` (stereo not given), the IC50 (against GABA transporter 2; against GABA transporter 3; in test [1]) was over 1000 µM throughout.

For the compound `O=C(CCN1CCNCC1)N1CCCC12CCCCC2`, the IC50 (on GABA transporter 2; against GABA transporter 3; in test [1]) was over 1000 µM throughout.

For `CCOC(=O)C1CCCN(CCC(=O)N2CCCC23CCCCC3)C1` (stereo not given), the figures for the IC50 (against GABA transporter 2; on GABA transporter 3; in test [1]) were over 5000 µM, 2330 µM and over 5000 µM, respectively.

`C=CC(=O)N1CCCC12CCCCC2`: the values for the half-inhibitory concentration (IC50) (against GABA transporter 2; against GABA transporter 3; in test [1]) were over 5000 µM, 3020 µM and over 5000 µM, respectively.

As for `O=C(CBr)N1C(=O)CCC12CCCCC2`, the IC50 is 103 µM at GABA transporter 2, over 1000 µM against GABA transporter 3 and 371 µM in test [1].

As for `O=C(CCN1CCCCC1)N1C(=O)CCC12CCCCC2`, the IC50 (against GABA transporter 2; at GABA transporter 3; in test [1]) was over 1000 µM in each case.

Consider `CCN(CC)CCC(=O)N1CCCC12CCCCC2`, for which the IC50 (against GABA transporter 2; against GABA transporter 3; in test [1]) was over 1000 µM throughout.

Regarding `CCOC(=O)C1CCCN(CCC(=O)N2C(=O)CCC23CCCCC3)C1` (stereo not given), the figures for the concentration for half-maximal inhibition (IC50) (on GABA transporter 2; at GABA transporter 3; in test [1]) were 164 µM, over 1000 µM and over 1000 µM, respectively.

Consider `C=CC(=O)N1C(=O)CCC12CCCCC2=O` (stereo not given), for which the half-maximal inhibitory concentration (IC50) (against GABA transporter 2; on GABA transporter 3; in test [1]) was over 1000 µM in each case.

For the compound `O=C(CCN1CCOCC1)N1C(=O)CCC12CCCCC2`, the IC50 (against GABA transporter 2; against GABA transporter 3; in test [1]) was over 1000 µM in each case.

Take `CCN(CC)CCC(=O)N1C(=O)CCC12CCCCC2`: the IC50 (on GABA transporter 2; at GABA transporter 3; in test [1]) was over 1000 µM each time.

With `COC(=O)C1=CCCN(CCC(=O)N2CCCC23CCCCC3)C1`, the IC50 turned out to be 2300 µM against GABA transporter 2, 3230 µM against GABA transporter 3 and 2050 µM in test [1].

`O=C(O)C1=CCCN(CCON=C(c2ccccc2)c2ccccc2)C1`: the IC50 was over 1000 µM on GABA transporter 2, over 1000 µM against GABA transporter 3 and 0.18 µM in test [1].

With `C=CC(=O)N1C(=O)C=CC12CCCC21OCCO1` (stereo not given), the IC50 (against GABA transporter 2; against GABA transporter 3; in test [1]) was over 1000 µM each time.

Consider `O=C1CCC2(CCCC23OCCO3)N1` (stereo not given), for which the IC50 (on GABA transporter 2; on GABA transporter 3; in test [1]) was over 1000 µM each time.

Take `C1CCC2(CC1)CCCN2`: the IC50 (on GABA transporter 2; against GABA transporter 3; in test [1]) was over 5000 µM throughout.

With `[N-]=[N+]=NCC(=O)N1C(=O)CCC12CCCCC2`, the IC50 (at GABA transporter 2; against GABA transporter 3; in test [1]) was over 1000 µM in each case.

As for `O=C(CCN1CCNCC1)N1C(=O)CCC12CCCCC2`, the IC50 (at GABA transporter 2; on GABA transporter 3; in test [1]) was over 1000 µM throughout.

On to `O=C(CCN1CCCC1)N1CCCC12CCCCC2`, for which the IC50 (at GABA transporter 2; against GABA transporter 3; in test [1]) was over 5000 µM in each case.

Regarding `O=C1CCC2(CCCCC2)N1`, the IC50 (on GABA transporter 2; against GABA transporter 3; in test [1]) was over 5000 µM throughout.

As to `O=C(CCN1CCCCC1)N1CCCC12CCCCC2`, the IC50 (on GABA transporter 2; against GABA transporter 3; in test [1]) was over 5000 µM each time.

For `O=C(CBr)N1CCCC12CCCCC2`, the IC50 is over 5000 µM against GABA transporter 2, over 5000 µM at GABA transporter 3 and 233 µM in test [1].

Take `COc1ccc(C(OCCN2CCC[C@H](C(=O)O)C2)(c2ccc(OC)cc2)c2ccc(OC)cc2)cc1`: the IC50 on GABA transporter 2 is over 1000 µM.

Broadly, the IC50 is the concentration needed to halve the response being measured.
